Test results from PubChem BioAssay AID489040 (Sanford-Burnham Center for Chemical Genomics, 2010).
The source made the active and inactive calls.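 Rule for the calls: active = mean half-maximal activating concentration from the dose-response fit at or below a set limit; inactive = the rest.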

Target: CHO-XBP1 luciferase reporter, IRE1-XBP1 UPR activation
Test: activators of IRE1-XBP1 UPR arm, dose response, counter-screen for apoptotic UPR arm activators, CHO-XBP1 cells, luminescence (AID 489040);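 note: reporter read after six hours of compound exposure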

C/C(=N\NC(=O)c1ccccc1OCc1ccc(F)cc1)c1ccccn1
EC50: > 80 µM (inactive)

CCOc1ccc(-c2nnc(SCC(=O)Nc3ccc4c(c3)c3ccccc3n4CC)n2N)cc1
EC50: > 80 µM (inactive)

O=C(N/N=C/c1ccccn1)c1cc([N+](=O)[O-])cc([N+](=O)[O-])c1
EC50: > 80 µM (inactive)

Cc1cc(SCC(=O)N/N=C/c2ccc(O)c(O)c2)nc2ccccc12
EC50: inactive

Cc1ccc2oc(Nc3nc(-c4ccccc4)cc(=O)[nH]3)nc2c1
EC50: > 80 µM (inactive)

Cc1cccc(-n2ncc(Cl)c(Cl)c2=O)c1
EC50: > 80 µM (inactive)

Cc1ccc(-n2nc3cc(C)c(NC(=S)NC(=O)/C=C/c4ccco4)cc3n2)cc1
EC50: inactive

CCOC(=O)c1c2ccc(OCC(=O)N/N=C/c3ccc(C)cc3)cc2n2ccccc12
EC50: > 80 µM (inactive)

Cc1ccc(N2C(=O)NC(=O)/C(=C/c3cnn(-c4ccc(C)cc4)c3)C2=O)cc1
EC50: > 80 µM (inactive)

CC(C)c1ccc(N2C(=O)CC(Sc3nc4ccccc4o3)C2=O)cc1 (stereo not given)
EC50: > 80 µM (inactive)

CCOC(=O)c1cnc(Nc2nc3ccccc3o2)nc1CSC(=S)N(CC)CC
EC50: 4.59 µM

COc1cccc(N=Cc2c(O)c3ccccc3oc2=O)c1
EC50: > 80 µM (inactive)

COc1cc(NC(=O)c2cncc(-c3ccc(C#N)cc3)c2)cc(C(=O)Nc2cccc(C(F)(F)F)c2)c1
EC50: 19.3 µM

FC(F)(F)c1nnc2c(Sc3ccccc3)nc3ccc(Cl)cc3n12
EC50: 9.74 µM

C/C(=N\NC(=O)C(c1ccccc1)c1ccccc1)c1ccccn1
EC50: > 80 µM (inactive)

C=CCn1nc([N+](=O)[O-])nc1Sc1cccc2cccnc12
EC50: > 80 µM (inactive)

CC(=O)/C(=N\Nc1ccc(Cl)cc1Cl)Sc1cccc2cccnc12
EC50: > 80 µM (inactive)

Cc1ccc(CS(=O)(=O)c2ncc(Cl)c(C(=O)Nc3nnc(C(C)C)s3)n2)cc1
EC50: > 80 µM (inactive)

Oc1c(Cl)cc(CN2CCCCC2)c2cccnc12
EC50: > 80 µM (inactive)

COc1ccccc1N1CCN(/N=C/c2ccc(O)c(O)c2)CC1
EC50: > 80 µM (inactive)

CN1C(=O)NC(=O)/C(=C\C=C\c2ccccc2[N+](=O)[O-])C1=O
EC50: > 80 µM (inactive)

CC1=NOC(=O)/C1=C\c1ccc(-c2cccc(Cl)c2)o1
EC50: > 80 µM (inactive)

O=C(N/N=C/c1ccccn1)c1ccc(Cl)c(Cl)c1
EC50: > 80 µM (inactive)

Cc1ccc(C)c(NC(=S)c2ccccn2)c1
EC50: > 80 µM (inactive)

CCOC(=O)C(=Cc1ccc(-n2cncn2)cc1)C(=O)OCC
EC50: > 80 µM (inactive)

COc1ccc(-c2cc(C(F)(F)F)nc(S(C)(=O)=O)n2)cc1OC
EC50: > 80 µM (inactive)

CC(C)c1ccc(NC(=O)/C(C#N)=C/c2ccncc2)cc1
EC50: > 80 µM (inactive)

COc1cc(/C=C2\C(=O)ON=C2c2ccc(Cl)cc2)ccc1O
EC50: > 80 µM (inactive)

Oc1ccc(/C=N/N2CCCCC2)cc1O
EC50: > 80 µM (inactive)

COC(=O)c1c(NC(=O)CC2Nc3ccccc3NC2=O)sc(C)c1C (stereo not given)
EC50: > 80 µM (inactive)

Cc1cc(C(=O)CCl)c(C)n1-c1cccc([N+](=O)[O-])c1
EC50: > 80 µM (inactive)

Cc1ccc(-c2nc(NC(=O)c3nn(C)cc3[N+](=O)[O-])sc2C)cc1
EC50: > 80 µM (inactive)

O=C(COc1ccc2ccccc2c1)N1CCN(Cc2c[nH]c3ccccc23)CC1
EC50: > 80 µM (inactive)

COc1ccc(C(=O)NCC(=O)N/N=C/c2ccc([N+](=O)[O-])o2)cc1OC
EC50: > 80 µM (inactive)

O=C(Nc1ccc(Cc2ccncc2)cc1)c1ccc([N+](=O)[O-])o1
EC50: > 80 µM (inactive)

O=C(c1ccc(Br)cc1)C(CN1CCOCC1)c1ccccc1 (stereo not given)
EC50: > 80 µM (inactive)

CCOC(=O)c1c(CSC(=N)N)n(-c2ccc(C)cc2)c2cc(Br)c(OC(C)=O)cc12
EC50: > 80 µM (inactive)

CCC(=O)Nc1ccc(C(=O)Cn2ncc(Cl)c(Cl)c2=O)cc1
EC50: > 80 µM (inactive)

COc1cc2nc(NC(=O)c3ccc(Cl)cc3)sc(=O)c2cc1OC
EC50: > 80 µM (inactive)

C=CCN1C(=O)/C(=C/c2ccc3c(c2)CCCN3CCC)C(=O)NC1=S
EC50: > 80 µM (inactive)

Cc1ccc(-c2nc(N/N=C/c3cccc([N+](=O)[O-])c3)c3ccccc3n2)cc1
EC50: > 80 µM (inactive)

O=C(Nc1nc(-c2ccccn2)cs1)c1ccc(Br)s1
EC50: inactive

O=C(Nc1nc(-c2ccccn2)cs1)c1cc(Cl)ccc1[N+](=O)[O-]
EC50: > 80 µM (inactive)

CCOC(=O)N1CCN(S(=O)(=O)c2ccc(C(=O)Nc3nc4c(s3)CC(C)CC4)cc2)CC1 (stereo not given)
EC50: > 80 µM (inactive)

Cc1cccc(Nc2nc3c(S(=O)(=O)c4ccccc4)nnn3c3ccccc23)c1C
EC50: inactive

CC(C)(C)C1=CC(=O)C(=O)C(C(C)(C)C)=C1
EC50: > 80 µM (inactive)

O=C(Nc1nc2c(F)cc(F)cc2s1)c1ccccn1
EC50: > 80 µM (inactive)

O=C(N/N=C/c1ccccn1)c1cc(-c2ccccc2)nc2ccccc12
EC50: > 80 µM (inactive)

Cc1nc([N+](=O)[O-])c(Br)n1CC(=O)c1ccc(Cl)cc1
EC50: > 80 µM (inactive)

COc1ccccc1C(=O)NC(=S)NNC(=O)c1sc2ccccc2c1Cl
EC50: inactive

Cc1cc(NC(=O)CCS(=O)(=O)c2nc(-c3ccccc3)cc(C(F)(F)F)n2)no1
EC50: > 80 µM (inactive)

O=C(CCl)N1N=C(c2cccs2)CC1c1ccco1 (stereo not given)
EC50: > 80 µM (inactive)

CCOc1ccc(-n2c(C)cc(C(=O)CCl)c2C)cc1
EC50: 5.83 µM

Oc1c(C(c2ccccc2Cl)N2CCCC2)ccc2cccnc12 (stereo not given)
EC50: > 80 µM (inactive)

CCOC(=O)c1ccc(N2C(=O)C=CC2=O)cc1
EC50: > 80 µM (inactive)

Oc1c(CN2CCc3ccccc3C2)cc(Cl)c2cccnc12
EC50: > 80 µM (inactive)

COc1ccccc1N=Cc1c(O)c2ccccc2oc1=O
EC50: 8.05 µM

O=C(NC1CCCC1)C(c1ccc(F)cc1)N(Cc1ccc(Cl)cc1)C(=O)CCl (stereo not given)
EC50: > 80 µM (inactive)

CCOC(=O)c1c(-c2ccc(-c3ccccc3)cc2)csc1NC(=O)CNCCN(C)C
EC50: > 80 µM (inactive)

O=C(N/N=C/c1ccccn1)c1cc(-c2ccc(Br)cc2)nc2ccccc12
EC50: > 80 µM (inactive)

CCOc1ccc(NC(=S)NC(=O)/C=C/c2ccc(OC)c(OC)c2)c([N+](=O)[O-])c1
EC50: > 80 µM (inactive)

Cc1ccc(Sc2nc(-c3ccccc3)nnc2C(F)(F)F)cc1
EC50: > 80 µM (inactive)

O=C1CC(c2cccc(Cl)c2)CC(O)=C1C=Nc1ccccc1 (stereo not given)
EC50: > 80 µM (inactive)

Cc1cc(C)c2c(c1)/C(=c1/sc3n(c1=O)CN(c1ccccc1)CN=3)C(=O)N2
EC50: inactive

Cc1nc2ccccc2n1-c1nc(-c2ccco2)cc(C(F)(F)F)n1
EC50: > 80 µM (inactive)

CCCCOC(=O)/C=C\C(=O)NC(N)=O
EC50: > 80 µM (inactive)

S=C(Nc1ccccc1)c1ccccn1
EC50: > 80 µM (inactive)

COc1ccc(C(C[N+](=O)[O-])n2nc(C)cc2C)cc1 (stereo not given)
EC50: > 80 µM (inactive)

CCOc1ccccc1N=Cc1c(O)c2ccccc2oc1=O
EC50: 10.8 µM

O=C1NC(=O)N(Cc2ccccc2Cl)C(=O)/C1=C/c1cccs1
EC50: > 80 µM (inactive)

O=C(N/N=C(\c1ccccc1)c1cccnc1)c1cccc(F)c1
EC50: > 80 µM (inactive)

CCCCC1CCC(C(=O)N(CCCC)c2c(N)n(CCCC)c(=O)[nH]c2=O)CC1 (stereo not given)
EC50: > 80 µM (inactive)

CCOc1cc(/C=N/Nc2cc(C)nc(-n3nc(C)cc3C)n2)ccc1O
EC50: > 80 µM (inactive)

O=C(Nc1nc(-c2ccccn2)cs1)c1ccc(Cl)s1
EC50: inactive

CCOc1ccccc1-n1c(SCC(=O)Nc2ccc(CC)cc2)nc2n[nH]c(C)c2c1=N
EC50: 7.99 µM

Oc1ccc(/C=N/N(c2ccccc2)c2ccccc2)cc1O
EC50: inactive

CN(C)C(=O)CSc1cccc2cccnc12
EC50: > 80 µM (inactive)

CC(C)N=c1scc(-c2cccs2)n1/N=C/c1ccc(O)c(O)c1O
EC50: > 80 µM (inactive)

COC(=O)C1=C(C)N(c2ccc(C)c(C)c2)/C(=C/c2ccco2)C1=O
EC50: > 80 µM (inactive)

Cc1ccc(C[n+]2c(-c3ccc(C)cc3)cc(-c3ccc(C)cc3)cc2-c2ccc(C)cc2)cc1
EC50: > 80 µM (inactive)

COc1ccc(/C=C2\CN(Cc3ccccc3)C/C(=C\c3ccc(OC)c(O)c3)C2=O)cc1O
EC50: > 80 µM (inactive)

O=C(Nc1ccc(Cl)cc1)/C(=C/c1cccc(O)c1)c1nc2ccccc2s1
EC50: > 80 µM (inactive)

Cc1ccc(NC(=O)c2ccc(N/N=C/c3cccc(O)c3)c([N+](=O)[O-])c2)cc1
EC50: > 80 µM (inactive)

COc1cccc2sc(Nc3nnc(-c4cccs4)o3)nc12
EC50: > 80 µM (inactive)

CCc1cccc2c(C(=O)CCl)c[nH]c12
EC50: > 80 µM (inactive)

CCOC(=O)c1sc(N(Cc2ccccc2)C(=O)CCl)nc1C
EC50: 8.65 µM

S=C1SCN(CC2CC2)CN1CC1CC1
EC50: > 80 µM (inactive)

C=CCN=c1scc(C)n1/N=C/c1ccc(O)c(O)c1
EC50: 17.4 µM

COc1ccc(N2C(=O)/C(=C/C=C/c3ccccc3[N+](=O)[O-])C(=O)NC2=S)cc1
EC50: > 80 µM (inactive)

Cc1ccc2cccc(NS(=O)(=O)c3ccccc3)c2n1
EC50: > 80 µM (inactive)

O=C(NCc1ccccc1Cl)c1cccc2c1C(=O)c1ccc(-c3ccc(OC(F)(F)F)cc3)cc1S2(=O)=O
EC50: inactive

CC(=O)Nc1ccc(N=Cc2c(O)c(C(=O)Nc3ccccc3)cc3ccccc23)cc1
EC50: inactive

COc1cccc(N=Nc2ccc(O)c3ncccc23)c1
EC50: > 80 µM (inactive)

O=C(/C=C\c1ccccc1OC(=O)c1ccccc1F)c1cc2ccccc2o1
EC50: 13.7 µM

O=C1C(Cl)=C(NC(=O)c2ccccc2)C(=O)C(Cl)=C1NC(=O)c1ccccc1
EC50: > 80 µM (inactive)

Cc1ccc2c(C(=O)CCl)c(C)[nH]c2c1
EC50: > 80 µM (inactive)

Oc1c(CN2CCCCC2)cc(Br)c2cccnc12
EC50: > 80 µM (inactive)

CC1CCC/C=C/C(=O)c2c(O)cc(O)cc2CC(=O)O1 (stereo not given)
EC50: > 80 µM (inactive)

COc1cc([C@H]2c3[nH]c4ccccc4c3C[C@H]3C(=O)N4[C@@H](c5cc(OC)c(OC)c(OC)c5)c5[nH]c6ccccc6c5C[C@H]4C(=O)N23)cc(OC)c1OC
EC50: 14.1 µM

Cc1ccc(C(=O)NC(C#N)=C(Cl)Cl)cc1
EC50: > 80 µM (inactive)
